# Source: US12258327B2, “5-membered heteroaryl-containing aminopyridine compounds as EGFR inhibitors” (YUHAN CORPORATION, priority 2021, dated 2025)
# Like-named read-outs stand apart in the source and are kept apart here.
# How the values were obtained:
# [1] = target: EGFR del19/T790M/C797S (Homo sapiens, UniProt P00533, C797S/DEL746-750/T790M); assay: Biochemical EGFR kinase assay (Lance Ultra TR-FRET), triple mutant del19/T790M/C797S
# Procedure, shortened: (§1)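 Step 1: compound in kinase buffer, 0.003–10 μM. Step 2: kinase reaction 1 h at room temperature. Step 4: TR-FRET read at 615/665 nm; IC50 calculated.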
# [2] = target: EGFR L858R/T790M/C797S (Homo sapiens, UniProt P00533, C797S/L858R/T790M); assay: Biochemical EGFR kinase assay (Lance Ultra TR-FRET), triple mutant L858R/T790M/C797S
# Procedure, shortened: as §1
# [3] = target: EGFR del19/C797S (Homo sapiens, UniProt P00533, C797S/DEL746-750); assay: Biochemical EGFR kinase assay (Lance Ultra TR-FRET), double mutant del19/C797S
# Procedure, shortened: as §1
# [4] = target: EGFR L858R/C797S (Homo sapiens, UniProt P00533, C797S/L858R); assay: Biochemical EGFR kinase assay (Lance Ultra TR-FRET), double mutant L858R/C797S
# Procedure, shortened: as §1
# [5] = target: EGFR wildtype (WT) (Homo sapiens, UniProt P00533); assay: Biochemical EGFR kinase assay (Lance Ultra TR-FRET), wildtype
# Procedure, shortened: as §1
# [6] = IC50 del19/T790M/C797S (nM) 100 μM ATP, 100 μM ATP
# [7] = Km ATP, read-out: IC50 del19/T790M/C797S (nM) Km ATP
# [8] = Km ATP, read-out: IC50 L858R/T790M/C797S (nM) Km ATP
# [9] = IC50 del19/C797S (nM) 100 μM ATP, 100 μM ATP
# [10] = Km ATP, read-out: IC50 del19/C797S (nM) Km ATP
# [11] = IC50 L858R/C797S (nM) 100 μM ATP, 100 μM ATP
# [12] = Km ATP, read-out: IC50 L858R/C797S (nM) Km ATP
# [13] = IC50 WT (nM) 100 μM ATP, 100 μM ATP
# [14] = Km ATP, read-out: IC50 WT (nM) Km ATP
# [15] = IC50 L858R/T790M/C797S (nM) 100 μM ATP, 100 μM ATP
# Chain of EGFR L858R/T790M/C797S (P00533 25-1210 T790M/C797S/L858R): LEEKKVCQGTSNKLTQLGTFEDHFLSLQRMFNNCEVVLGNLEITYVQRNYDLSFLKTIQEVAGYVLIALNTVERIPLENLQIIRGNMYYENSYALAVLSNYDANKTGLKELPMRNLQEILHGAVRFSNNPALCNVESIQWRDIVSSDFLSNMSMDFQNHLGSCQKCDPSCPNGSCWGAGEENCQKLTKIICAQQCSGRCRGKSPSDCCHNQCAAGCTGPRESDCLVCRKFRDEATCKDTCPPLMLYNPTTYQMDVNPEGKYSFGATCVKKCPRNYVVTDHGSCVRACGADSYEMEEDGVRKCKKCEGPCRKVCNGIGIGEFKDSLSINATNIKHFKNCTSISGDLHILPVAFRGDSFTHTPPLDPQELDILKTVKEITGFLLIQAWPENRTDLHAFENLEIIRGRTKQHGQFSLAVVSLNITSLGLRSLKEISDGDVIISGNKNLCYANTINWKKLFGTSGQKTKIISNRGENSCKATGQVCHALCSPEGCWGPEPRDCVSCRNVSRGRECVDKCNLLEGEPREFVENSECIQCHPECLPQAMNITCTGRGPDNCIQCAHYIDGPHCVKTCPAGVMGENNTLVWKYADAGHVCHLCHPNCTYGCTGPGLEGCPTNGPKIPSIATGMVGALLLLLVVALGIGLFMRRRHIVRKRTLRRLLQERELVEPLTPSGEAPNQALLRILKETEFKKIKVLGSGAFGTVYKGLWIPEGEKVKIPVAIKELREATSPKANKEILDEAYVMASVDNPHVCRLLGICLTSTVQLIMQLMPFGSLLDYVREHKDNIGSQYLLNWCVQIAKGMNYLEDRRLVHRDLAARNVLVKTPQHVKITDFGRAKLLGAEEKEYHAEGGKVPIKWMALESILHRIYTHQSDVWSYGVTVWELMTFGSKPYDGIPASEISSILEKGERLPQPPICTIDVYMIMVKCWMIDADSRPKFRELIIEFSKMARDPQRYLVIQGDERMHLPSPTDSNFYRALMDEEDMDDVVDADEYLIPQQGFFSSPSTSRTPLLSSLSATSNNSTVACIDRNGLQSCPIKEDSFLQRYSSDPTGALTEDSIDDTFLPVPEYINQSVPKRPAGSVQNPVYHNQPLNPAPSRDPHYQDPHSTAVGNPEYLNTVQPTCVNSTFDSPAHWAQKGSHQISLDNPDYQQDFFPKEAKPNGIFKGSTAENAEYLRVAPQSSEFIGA
# Chain of EGFR L858R/C797S (P00533 25-1210 C797S/L858R): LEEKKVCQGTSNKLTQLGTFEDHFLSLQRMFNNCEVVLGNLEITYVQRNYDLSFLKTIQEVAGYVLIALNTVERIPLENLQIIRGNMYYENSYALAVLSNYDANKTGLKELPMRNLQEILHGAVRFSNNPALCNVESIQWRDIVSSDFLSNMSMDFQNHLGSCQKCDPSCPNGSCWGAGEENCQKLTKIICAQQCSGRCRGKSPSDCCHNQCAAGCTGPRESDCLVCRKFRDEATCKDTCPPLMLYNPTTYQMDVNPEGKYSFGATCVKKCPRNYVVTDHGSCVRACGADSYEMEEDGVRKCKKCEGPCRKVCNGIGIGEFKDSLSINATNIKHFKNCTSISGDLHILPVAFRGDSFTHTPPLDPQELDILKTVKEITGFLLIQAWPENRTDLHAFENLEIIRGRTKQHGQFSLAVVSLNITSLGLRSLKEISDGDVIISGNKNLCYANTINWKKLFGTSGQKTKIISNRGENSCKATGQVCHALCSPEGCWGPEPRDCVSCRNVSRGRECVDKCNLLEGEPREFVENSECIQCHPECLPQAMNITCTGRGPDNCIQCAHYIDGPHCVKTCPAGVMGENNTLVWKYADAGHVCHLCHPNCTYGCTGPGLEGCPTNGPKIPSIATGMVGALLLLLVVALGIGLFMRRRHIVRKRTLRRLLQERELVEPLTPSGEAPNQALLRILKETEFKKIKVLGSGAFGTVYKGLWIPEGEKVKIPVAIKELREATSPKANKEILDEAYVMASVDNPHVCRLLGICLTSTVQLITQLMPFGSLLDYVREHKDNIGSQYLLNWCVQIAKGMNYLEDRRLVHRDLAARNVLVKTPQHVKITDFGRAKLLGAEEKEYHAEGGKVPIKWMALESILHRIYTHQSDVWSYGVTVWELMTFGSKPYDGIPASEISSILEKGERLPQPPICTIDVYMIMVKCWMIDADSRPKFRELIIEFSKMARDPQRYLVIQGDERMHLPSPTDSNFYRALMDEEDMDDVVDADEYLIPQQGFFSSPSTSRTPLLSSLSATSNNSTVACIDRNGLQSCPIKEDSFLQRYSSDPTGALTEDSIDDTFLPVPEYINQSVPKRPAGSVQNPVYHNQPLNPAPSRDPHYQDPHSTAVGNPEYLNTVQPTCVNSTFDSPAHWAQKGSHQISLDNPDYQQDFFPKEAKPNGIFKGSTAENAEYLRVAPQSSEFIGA
# Chain of EGFR del19/C797S (P00533 with tags, fused parts or gaps DEL746-750/C797S): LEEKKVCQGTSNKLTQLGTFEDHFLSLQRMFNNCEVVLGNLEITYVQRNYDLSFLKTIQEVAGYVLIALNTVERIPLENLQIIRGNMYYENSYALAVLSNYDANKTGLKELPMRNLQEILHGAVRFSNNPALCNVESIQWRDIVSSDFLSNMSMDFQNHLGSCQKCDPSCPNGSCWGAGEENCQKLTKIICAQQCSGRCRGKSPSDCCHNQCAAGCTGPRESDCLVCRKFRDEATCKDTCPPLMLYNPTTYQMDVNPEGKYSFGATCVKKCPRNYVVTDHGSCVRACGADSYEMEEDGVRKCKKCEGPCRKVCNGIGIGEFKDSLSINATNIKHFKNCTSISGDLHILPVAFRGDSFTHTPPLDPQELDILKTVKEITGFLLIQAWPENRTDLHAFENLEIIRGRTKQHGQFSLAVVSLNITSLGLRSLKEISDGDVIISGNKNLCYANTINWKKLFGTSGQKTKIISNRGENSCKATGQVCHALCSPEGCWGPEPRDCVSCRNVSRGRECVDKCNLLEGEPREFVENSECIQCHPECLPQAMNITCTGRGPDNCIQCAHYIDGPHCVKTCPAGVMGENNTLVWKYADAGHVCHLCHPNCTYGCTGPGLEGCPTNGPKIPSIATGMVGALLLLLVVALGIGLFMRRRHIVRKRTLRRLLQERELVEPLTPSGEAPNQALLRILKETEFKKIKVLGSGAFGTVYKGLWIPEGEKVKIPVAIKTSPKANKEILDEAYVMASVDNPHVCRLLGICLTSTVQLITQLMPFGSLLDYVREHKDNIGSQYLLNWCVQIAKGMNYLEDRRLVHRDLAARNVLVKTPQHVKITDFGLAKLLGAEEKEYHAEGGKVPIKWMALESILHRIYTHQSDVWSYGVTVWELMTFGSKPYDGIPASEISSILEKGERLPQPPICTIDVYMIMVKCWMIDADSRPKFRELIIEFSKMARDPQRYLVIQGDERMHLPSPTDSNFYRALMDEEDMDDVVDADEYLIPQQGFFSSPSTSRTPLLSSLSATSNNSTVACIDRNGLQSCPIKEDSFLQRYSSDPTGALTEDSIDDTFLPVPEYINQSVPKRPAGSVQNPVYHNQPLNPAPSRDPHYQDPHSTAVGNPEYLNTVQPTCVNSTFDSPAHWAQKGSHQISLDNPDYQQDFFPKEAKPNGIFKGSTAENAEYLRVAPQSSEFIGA
# Chain of EGFR wildtype (WT) (P00533 25-1210): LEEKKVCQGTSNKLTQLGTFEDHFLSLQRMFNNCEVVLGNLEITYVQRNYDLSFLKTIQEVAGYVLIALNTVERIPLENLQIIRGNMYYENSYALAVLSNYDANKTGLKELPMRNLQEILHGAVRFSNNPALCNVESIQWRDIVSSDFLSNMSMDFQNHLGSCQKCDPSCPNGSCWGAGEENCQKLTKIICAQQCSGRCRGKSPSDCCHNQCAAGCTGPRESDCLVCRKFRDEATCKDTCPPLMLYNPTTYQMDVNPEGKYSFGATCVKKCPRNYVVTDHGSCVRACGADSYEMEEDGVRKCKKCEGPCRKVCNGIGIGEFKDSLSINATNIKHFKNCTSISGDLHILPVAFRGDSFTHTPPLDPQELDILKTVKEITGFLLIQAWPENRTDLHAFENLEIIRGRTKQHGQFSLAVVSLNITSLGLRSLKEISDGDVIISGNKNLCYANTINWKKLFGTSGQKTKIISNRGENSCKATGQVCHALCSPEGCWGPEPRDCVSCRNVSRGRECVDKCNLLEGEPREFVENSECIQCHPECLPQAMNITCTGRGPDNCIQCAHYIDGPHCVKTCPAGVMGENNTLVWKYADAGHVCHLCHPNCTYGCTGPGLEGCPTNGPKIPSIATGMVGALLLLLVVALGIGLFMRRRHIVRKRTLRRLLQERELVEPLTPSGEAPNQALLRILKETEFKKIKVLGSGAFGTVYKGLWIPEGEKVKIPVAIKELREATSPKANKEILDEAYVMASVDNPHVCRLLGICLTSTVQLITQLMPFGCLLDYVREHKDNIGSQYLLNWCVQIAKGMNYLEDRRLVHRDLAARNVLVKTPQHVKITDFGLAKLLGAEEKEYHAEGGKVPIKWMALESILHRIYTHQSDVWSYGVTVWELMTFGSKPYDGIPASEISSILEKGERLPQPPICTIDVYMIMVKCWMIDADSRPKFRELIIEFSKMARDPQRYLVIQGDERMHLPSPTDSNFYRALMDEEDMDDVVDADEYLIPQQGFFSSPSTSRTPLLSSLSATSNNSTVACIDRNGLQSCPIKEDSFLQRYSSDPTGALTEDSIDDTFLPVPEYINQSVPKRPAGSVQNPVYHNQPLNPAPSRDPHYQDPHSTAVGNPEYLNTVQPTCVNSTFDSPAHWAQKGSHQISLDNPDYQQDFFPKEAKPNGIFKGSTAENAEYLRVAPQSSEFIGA
SMILES,"IC50 [1, 6] [nM]","IC50 [1, 7] [nM]","IC50 [2, 8] [nM]","IC50 [3, 9] [nM]","IC50 [3, 10] [nM]","IC50 [4, 11] [nM]","IC50 [4, 12] [nM]","IC50 [5, 13] [nM]","IC50 [5, 14] [nM]","IC50 [2, 15] [nM]","IC50 ([1]; Km ATP, read-out: IC50 del19/T790M/C797S, Km ATP) [nM]","IC50 ([2]; Km ATP, read-out: IC50 L858R/T790M/C797S, Km ATP) [nM]","IC50 ([3]; Km ATP, read-out: IC50 del19/C797S, Km ATP) [nM]","IC50 ([4]; Km ATP, read-out: IC50 L858R/C797S, Km ATP) [nM]","IC50 ([5]; Km ATP, read-out: IC50 WT, Km ATP) [nM]"
"O=S(=O)(C1CC1)n1cc(-c2nccc(Nc3cc(N[C@H]4CC[C@@H](CO)CC4)c(-c4cc5n(n4)CCCC5)cn3)n2)cn1 [Example 60, ((1s,4s)-4-((2-((2-(1-(Cyclopropylsulfonyl)-1H-pyrazol-4-yl)pyrimidin-4-yl)amino)-5-(4,5,6,7-tetrahydropyrazolo[1,5-a]pyridin-2-yl)pyridin-4-yl)amino)cyclohexyl)methanol]",4.3,1.1,0.5,2.5,1.1,2.4,1.1,326,2.2,–,–,–,–,–,–
"Cn1ccc(-c2cnc(Nc3ccnc(-c4cnn(S(=O)(=O)C5CC5)c4)n3)cc2N[C@H]2CCC[C@H](CO)C2)n1 [Example 233, ((1S,3S)-3-((2-((2-(1-(Cyclopropylsulfonyl)-1H-pyrazol-4-yl)pyrimidin-4-yl)amino)-5-(1-methyl-1H-pyrazol-3-yl)pyridin-4-yl)amino)cyclohexyl)methanol]",0.5,0.4,0.2,1.3,0.5,4.2,0.9,3140,3.6,0.4,–,–,–,–,–
"CN(CC(F)F)C[C@H]1CC[C@@H](Nc2cc(Nc3ccnc(-c4cnn(S(=O)(=O)C5CC5)c4)n3)ncc2-c2ccn(C(F)F)n2)CC1 [Example 206, N^2-(2-(1-(Cyclopropylsulfonyl)-1H-pyrazol-4-yl)pyrimidin-4-yl)-N^4-((1s,4s)-4-(((2,2-difluoroethyl)(methyl)amino)methyl)cyclohexyl)-5-(1-(difluoromethyl)-1H-pyrazol-3-yl)pyridine-2,4-diamine]",22.1,–,–,26.9,–,206,–,> 10000,–,13.8,–,–,–,–,–
"Cc1cc(-c2cnc(Nc3ccnc(-c4cnn(S(=O)(=O)C5CC5)c4)n3)cc2N[C@H]2CC[C@@](C)(O)CC2)nn1C [Example 291, (1s,4s)-4-((2-((2-(1-(Cyclopropylsulfonyl)-1H-pyrazol-4-yl)pyrimidin-4-yl)amino)-5-(1,5-dimethyl-1H-pyrazol-3-yl)pyridin-4-yl)amino)-1-methylcyclohexan-1-ol]",0.4,0.3,0.2,0.6,0.2,–,0.3,941,0.3,0.3,–,–,–,–,–
"CN(C)CC[C@H]1CC[C@@H](Nc2cc(Nc3ccnc(-c4cnn(S(=O)(=O)C5CC5)c4)n3)ncc2-c2ccn(C)n2)CC1 [Example 240, N^2-(2-(1-(Cyclopropylsulfonyl)-1H-pyrazol-4-yl)pyrimidin-4-yl)-N^4-((1s,4s)-4-(2-(dimethylamino)ethyl)cyclohexyl)-5-(1-methyl-1H-pyrazol-3-yl)pyridine-2,4-diamine]",–,0.4,0.1,–,0.2,–,0.04,–,0.2,–,–,–,–,–,–
"FC(F)Cn1cc(-c2nccc(Nc3cc(N[C@H]4CC[C@@H](F)CC4)c(-c4ccn(CC(F)(F)F)n4)cn3)n2)cn1 [Example 339, N^2-(2-(1-(2,2-Difluoroethyl)-1H-pyrazol-4-yl)pyrimidin-4-yl)-N^4-((1s,4s)-4-fluorocyclohexyl)-5-(1-(2,2,2-trifluoroethyl)-1H-pyrazol-3-yl)pyridine-2,4-diamine]",–,–,–,–,–,–,–,–,–,–,2.9,0.4,1070,113,424
"Cn1ccc(-c2cnc(Nc3ccnc(-c4cnn(S(=O)(=O)C5CC5)c4)n3)cc2N[C@H]2CC[C@@H](CCO)CC2)n1 [Example 136, 2-((1s,4s)-4-((2-((2-(1-(Cyclopropylsulfonyl)-1H-pyrazol-4-yl)pyrimidin-4-yl)amino)-5-(1-methyl-1H-pyrazol-3-yl)pyridin-4-yl)amino)cyclohexyl)ethan-1-ol]",0.9,0.8,0.4,1.2,0.3,0.8,0.2,321,–,1,–,–,–,–,–
